From US20240109881A1, “Heteroaryl Compounds as Ligand Directed Degraders of IRAK4” (Bristol-Myers Squibb Company, priority 2022, published 2024)

Biological target: T1, IRAK4 (Homo sapiens, UniProt Q9NWZ3)
T1 construct: endogenous in cells; host or cells: THP-1 cells
T1 sequence (Q9NWZ3 1-460): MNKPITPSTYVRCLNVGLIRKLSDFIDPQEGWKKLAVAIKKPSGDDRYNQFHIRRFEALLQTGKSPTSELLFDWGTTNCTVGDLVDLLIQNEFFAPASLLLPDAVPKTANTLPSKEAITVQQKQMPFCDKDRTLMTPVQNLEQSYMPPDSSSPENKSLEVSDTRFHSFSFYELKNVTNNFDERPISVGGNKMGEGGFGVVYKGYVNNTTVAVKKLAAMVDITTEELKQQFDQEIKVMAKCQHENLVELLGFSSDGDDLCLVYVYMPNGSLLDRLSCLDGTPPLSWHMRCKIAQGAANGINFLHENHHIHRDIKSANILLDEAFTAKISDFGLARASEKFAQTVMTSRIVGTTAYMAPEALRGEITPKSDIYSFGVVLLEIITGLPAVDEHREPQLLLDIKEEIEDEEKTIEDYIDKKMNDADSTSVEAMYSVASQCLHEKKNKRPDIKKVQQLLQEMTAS
Assay: LVL THP1 HTRF (THP1 Homogeneous Time Resolved Fluorescence)
Assay type: cell-based
Conditions: THP1 cells, 18 h incubation with compound; for DC50: read-out: LVL THP1 HTRF EC50
Method: Cell culture media was prepared in a tissue culture hood in a sterile environment by adding 10% FBS and 1% Penicillin Streptomycin to 500 mL no phenol red RPMI 1640 media. The media was filtered through a Nalgene Bottle Top Filter and stored at 4° C.
For Homogenous Time Resolved Fluorescence (HTRF) assays, a Cisbio HTRF kit was used, which included: Lysis Buffer #1 4×, Blocking Reagent #3 100×, 20× Antibody 1 (Anti-IRAK4 d2), 20× Antibody 2 (Anti-IRAK4 k), and Detection Buffer.
The THP1 plates were prepared by the following method. For each dosing plate, a duplicate for CTG assay was prepared. Two THP-1 T-175 flasks could be used to plate one 384 well plate. The cells were collected from two T-175 flasks into 200 mL centrifuge tubes and spun down at 1200 rpm for 10 min. The supernatant was removed completely and cells were resuspended in 7.5 mL cell culture media. To 5 μL of the cell suspension was added 25 μL of media and 30 μL of Trypan Blue stain. The cells were counted using countess (automated cell counter, Thermo Fisher Scientific) twice and the viability and live cell count was recorded. The actual cell count was […] the live cell count. Based on the count, a cell suspension was prepared in colorless RPMI media for a final concentration of 7.5e6 cells/mL. Using Standard cassette multidrop combi, 20 μL of the 7.5e6 cells/mL cell stock was added to entire 384 well plate but for top half of column 1 (negative control) The multidrop combi was always primed to achieve a steady flow and washed after use with 20 mL de-ionized water followed by 20 mL alcohol. The cells were incubated in 5% CO2 incubator at 37° C.
Dosing was conducted using the following method. To dose assay plates and CTG plate was added 20 nL of compounds in DMSO using Echo (Beckman Coulter), and the plates were incubated at 37° C. for 18 h. The compound plates were spun at 1200 rpm for 1 min before dosing. The compound plate was sealed and properly stored during incubation.
After dosing, an HTRF assay was conducted using the following method. The treatment plates (IRAK4_HTRF) were centrifuged at 600 g for 10 min. Using CyBio Felix, Automated liquid handler (Analytikjena), 13 μL cell culture media was removed. To all columns, 7.5 μL lysis buffer was added, and an additional 7.5 μL of lysis buffer was added to column 1(top half, negative control). The plate was incubated on a shaker at room temperature for 2 h. The plate was spun down at 600 g for 5 min. Custom 20×IRAK4 Antibody obtained from CISBIO Anti-IRAK4-d2 (acceptor Ab) and Anti-IRAK4-K (donor Ab) were diluted to 1× antibody mix Using a multichannel repeater, 4 μL of 1× antibody mix was added to each wellThe plate was spun down at 600 g for 5 min and incubated in the dark at room temperature for 18 h The next day (after 18 hrs), HTRF assay plate was spun down at 600 g for 5 min and read at 665/615 nm using a Envision plate reader.

LVL THP1 HTRF YMIN	DC50	Compound
1.8%	7 nM	C[C@H](C#N)Nc1cc(-n2ncc3cc(C#N)cnc32)ncc1-n1cc([C@H]2CC[C@H](CCN3CCN(c4ccc(C5(C)CCC(=O)NC5=O)cc4)CC3)CC2)nn1 (single isomer, unassigned) [P-204]
2.6%	29 nM	C[C@H](C#N)Nc1cc(-n2ncc3cc(C#N)cnc32)ncc1-n1cc(C2CCC(CCN3CCN(c4ccc(C5CCC(=O)NC5=O)cc4)C4COCC43)CC2)nn1 (single isomer, unassigned) [P-235]
2.8%	7 nM	C[C@H](C#N)Nc1cc(-n2ncc3cc(C#N)cnc32)ncc1-n1cc(C2CCC(CCN3CCN(c4ccc(C5CCC(=O)NC5=O)cc4)C4COCC43)CC2)nn1 (single isomer, unassigned) [P-237]
1.9%	2.3 nM	C[C@H](C#N)Nc1cc(-n2ncc3cc(C#N)c(N)nc32)ncc1C(=O)N[C@H]1CC[C@H](CCN2CCN(c3ccc([C@@]4(C)CCC(=O)NC4=O)cn3)[C@@H](C)C2)CC1 (single isomer, unassigned) [P-249]
1.7%	5.4 nM	C[C@H](C#N)Nc1cc(-n2ncc3cc(C#N)c(N)nc32)ncc1-n1cc([C@H]2CC[C@H](CCN3[C@@H](C)CN(c4ccc([C@@]5(C)CCC(=O)NC5=O)cn4)C[C@@H]3C)CC2)nn1 (single isomer, unassigned) [P-252]
9.4%	48.7 nM	C[C@H](C#N)Nc1cc(-n2ncc3cc(C#N)c(N)nc32)ncc1-n1cc([C@H]2CC[C@H](CCN3[C@H](C)CN(c4ccc([C@@]5(C)CCC(=O)NC5=O)cn4)C[C@H]3C)CC2)nn1 (single isomer, unassigned) [P-253]
91.0%	21.7 nM	C[C@H](C#N)Nc1cc(-n2ncc3cc(C#N)c(N)nc32)ncc1-n1cc([C@H]2CC[C@H](CCN3[C@@H](C)CN(c4ccc([C@@]5(C)CCC(=O)NC5=O)cn4)C[C@@H]3C)CC2)nn1 (single isomer, unassigned) [P-254]
90.4%	12.4 nM	C[C@H](C#N)Nc1cc(-n2ncc3cc(C#N)c(N)nc32)ncc1-n1cc([C@H]2CC[C@H](CCN3[C@H](C)CN(c4ccc([C@@]5(C)CCC(=O)NC5=O)cn4)C[C@H]3C)CC2)nn1 (single isomer, unassigned) [P-255]
34.7%	92.8 nM	C[C@H](C#N)Nc1cc(-n2ncc3cc(C#N)c(N)nc32)ncc1-n1cc([C@H]2CC[C@H](CCN3CCN(c4ccc([C@@]5(C)CCC(=O)NC5=O)nc4)[C@@H](C)C3)CC2)nn1 (single isomer, unassigned) [P-257]
2.0%	6.9 nM	C[C@H](C#N)Nc1cc(-n2ncc3cc(C#N)c(N)nc32)ncc1-n1cc([C@H]2CC[C@H](CCN3CCN(c4ccc([C@@]5(C)CCC(=O)NC5=O)cn4)[C@@H](C)C3)CC2)nn1 (single isomer, unassigned) [P-258]
89.5%	26.1 nM	C[C@H](C#N)Nc1cc(-n2ncc3cc(C#N)c(N)nc32)ncc1-n1cc([C@H]2CC[C@H](CCN3CCN(c4ccc([C@@]5(C)CCC(=O)NC5=O)cn4)[C@@H](C)C3)CC2)nn1 (single isomer, unassigned) [P-259]
8.7%	17.1 nM	C[C@H](C#N)Nc1cc(-n2ncc3cc(C#N)c(N)nc32)ncc1-n1cc([C@H]2CC[C@H](CCN3CCN(c4ccc([C@@]5(C)CCC(=O)NC5=O)cn4)[C@H](C)C3)CC2)nn1 (single isomer, unassigned) [P-262]
9.0%	25.7 nM	C[C@H](C#N)Nc1cc(-n2ncc3cc(C#N)c(N)nc32)ncc1-n1cc([C@H]2CC[C@H](CCN3CCN(c4cnc([C@@]5(C)CCC(=O)NC5=O)nc4)CC3)CC2)nn1 (single isomer, unassigned) [P-263]
94.6%	7.2 nM	C[C@H](C#N)Nc1cc(-n2ncc3cc(C#N)c(N)nc32)ncc1-n1cc([C@H]2CC[C@H](CCN3CCN(c4cnc([C@@]5(C)CCC(=O)NC5=O)nc4)CC3)CC2)nn1 (single isomer, unassigned) [P-264]
